The source made the active and inactive calls. No cut-off for these calls is given here.
Key:
Staphylococcus aureus [1] = test: Anti-MRSA activity against methicillin-resistant Staphylococcus aureus 3 incubated for 16 to 18 hrs in presence of 0 to 64 ug/ml peptidoglycan by checkerboard broth dilution method; assay type: functional, organism-based; conditions: time 16-18 hrs
[2] = Toxicity in KM mouse assessed as redness in skin at 40 to 80 mg/kg, sc administered into middle dorsum and measured after 24 hrs; assay type: organism-based; conditions: in vivo, dose 40-80 mg/kg
Cell membrane [3] = test: Disruption of membrane integrity in methicillin-resistant Staphylococcus aureus 3 assessed as increase in protein leakage at 1 to 8 times MIC incubated for 4 hrs by microspectrophotometer analysis; assay type: subcellular
[4] = Toxicity in KM mouse infected with methicillin-resistant Staphylococcus aureus 3 assessed as liver damage at 5 to 10 mg/kg administered into skin infection site measured after 24 hrs by H and E staining based analysis; assay type: organism-based; conditions: in vivo, topical_or_ocular, dose 5-10 mg/kg
Cell membrane [5] = test: Disruption of membrane integrity in methicillin-resistant Staphylococcus aureus 3 assessed as appearance of wrinkled cell surface at 16 ug/ml incubated for 240 mins by SEM analysis; assay type: subcellular; conditions: dose 16.0 µg/ml
Staphylococcus aureus [6] = test: Antibacterial activity against methicillin-resistant Staphylococcus aureus 3 infected in KM mouse assessed as reduction in abscesses on dorsal surface of skin at 5 mg/kg administered into skin infection site measured after 24 hrs; assay type: functional, organism-based
Cell membrane [7] = test: Induction of membrane depolarization in methicillin-resistant Staphylococcus aureus 3 assessed as increase in fluorescence intensity at 8 to 16 ug/ml measured every 2 mins for 20 mins by DiSC35 dye-based fluorescence assay; assay type: subcellular; conditions: dose 8-16 µg/ml
Staphylococcus aureus [8] = test: Antibacterial activity against methicillin-resistant Staphylococcus aureus clinical isolate 6 incubated for 16 to 18 hrs by CLSI-based microbroth dilution method; assay type: functional; conditions: time 16-18 hrs
[9] = Toxicity in KM mouse infected with methicillin-resistant Staphylococcus aureus 3 assessed as multifocal enlargement of hepatocytes with cytoplasmic foamy swelling at 5 to 10 mg/kg administered into skin infection site measured after 24 hrs by H and E staining based analysis; assay type: organism-based; conditions: in vivo, topical_or_ocular, dose 5-10 mg/kg
Staphylococcus aureus [10] = test: Antibacterial activity against methicillin-resistant Staphylococcus aureus clinical isolate 8 incubated for 16 to 18 hrs by CLSI-based microbroth dilution method; assay type: functional; conditions: time 16-18 hrs
[11] = Toxicity in KM mouse assessed as pathological changes in spleen at 20 mg/kg, sc administered into middle dorsum and measured after 24 hrs by H and E staining based analysis; assay type: organism-based; conditions: in vivo
[12] = Toxicity in KM mouse infected with methicillin-resistant Staphylococcus aureus 3 assessed as spleen damage at 5 to 10 mg/kg administered into skin infection site measured after 24 hrs by H and E staining based analysis; assay type: organism-based; conditions: in vivo, topical_or_ocular, dose 5-10 mg/kg
[13] = Toxicity in KM mouse assessed as effect on hemoglobin level at 20 mg/kg, sc administered into middle dorsum and measured after 24 hrs by routine blood test; assay type: organism-based; conditions: in vivo
[14] = Toxicity in KM mouse infected with methicillin-resistant Staphylococcus aureus 3 assessed as histopathological abnormalities in lungs at 5 to 10 mg/kg administered into skin infection site measured after 24 hrs by H and E staining based analysis; assay type: organism-based; conditions: in vivo, topical_or_ocular, dose 5-10 mg/kg
Staphylococcus aureus [15] = test: Bactericidal activity against methicillin-resistant Staphylococcus aureus 3 at 4 times MIC by plate colony counting method; assay type: functional, organism-based; conditions: time 0-8 hrs, TDE = time-dependent effect
Staphylococcus aureus [16] = test: Antibacterial activity against methicillin-resistant Staphylococcus aureus 3 infected in KM mouse assessed as reduction in size of abscesses at 5 mg/kg administered into skin infection site measured after 24 hrs; assay type: functional, organism-based
[17] = Toxicity in KM mouse assessed as pathological changes in liver at 20 mg/kg, sc administered into middle dorsum and measured after 24 hrs by H and E staining based analysis; assay type: organism-based; conditions: in vivo
Cell membrane [18] = test: Disruption of membrane integrity in methicillin-resistant Staphylococcus aureus 3 assessed as increase in intense blue fluorescence at 8 times MIC incubated for 4 hrs by DAPI/PI staining based laser confocal microscopic analysis; assay type: subcellular
[19] = Toxicity in KM mouse assessed as pathological changes in heart at 20 mg/kg, sc administered into middle dorsum and measured after 24 hrs by H and E staining based analysis; assay type: organism-based; conditions: in vivo
Staphylococcus aureus [20] = test: Anti-MRSA activity against methicillin-resistant Staphylococcus aureus 3 incubated for 16 to 18 hrs in presence of 0 to 64 ug/ml phosphatidylethanolamine by checkerboard broth dilution method; assay type: functional, organism-based; conditions: time 16-18 hrs
[21] = Hemolytic activity in sheep erythrocytes incubated for 1 hr by absorbance based analysis; assay type: toxicity, cell-based, Ovis aries, Erythrocyte
Staphylococcus aureus [22] = test: Antibacterial activity against methicillin-resistant Staphylococcus aureus 3 infected in KM mouse assessed as reduction in bacterial load at infection site by measuring colony forming units at 5 mg/kg administered into skin infection site measured after 24 hrs; assay type: functional
Staphylococcus aureus [23] = test: Antibacterial activity against methicillin-resistant Staphylococcus aureus clinical isolate 5 incubated for 16 to 18 hrs by CLSI-based microbroth dilution method; assay type: functional; conditions: time 16-18 hrs
[24] = Toxicity in KM mouse assessed as effect on urea level at 20 mg/kg, sc administered into middle dorsum and measured after 24 hrs by routine blood test; assay type: organism-based; conditions: in vivo
Cell membrane [25] = test: Disruption of membrane integrity in methicillin-resistant Staphylococcus aureus 3 assessed as increase in DNA leakage at 1 to 8 times MIC incubated for 4 hrs by microspectrophotometer analysis; assay type: subcellular
L02 = test: Cytotoxicity against human L02 cells assessed as reduction in cell viability at 64 ug/ml incubated for 24 hrs by CCK-8 assay; assay type: toxicity, cell-based; conditions: l02, 24 h, dose 64 µg/ml
Staphylococcus aureus [26] = test: Antibacterial activity against methicillin-resistant Staphylococcus aureus 3 infected in KM mouse assessed as reduction in bacterial load at infection site at 10 mg/kg administered into skin infection site measured after 24 hrs relative to control; assay type: functional; parameters: scale not given: the % may be the effect or the level left
Staphylococcus aureus [27] = test: Bactericidal activity against methicillin-resistant Staphylococcus aureus 3 at 8 times MIC measured at 2 hrs by plate colony counting method; assay type: functional, organism-based
Staphylococcus aureus [28] = test: Antibacterial activity against Staphylococcus aureus ATCC 29213 incubated for 16 to 18 hrs by CLSI-based microbroth dilution method; assay type: functional; conditions: time 16-18 hrs
Staphylococcus aureus [29] = test: Anti-MRSA activity against methicillin-resistant Staphylococcus aureus 3 incubated for 16 to 18 hrs in presence of 64 ug/ml phosphatidylglycerol by checkerboard broth dilution method (reference value: 1 ug/ml); assay type: functional; conditions: time 16-18 hrs
Staphylococcus aureus [30] = test: Bactericidal activity against Staphylococcus aureus ATCC 29213 at 4 times MIC by time kill assay; assay type: functional, organism-based; conditions: time 0-8 hrs, TDE = time-dependent effect
Staphylococcus aureus [31] = test: Antibacterial activity against methicillin-resistant Staphylococcus aureus clinical isolate 3 incubated for 16 to 18 hrs by CLSI-based microbroth dilution method; assay type: functional; conditions: time 16-18 hrs
[32] = Toxicity in KM mouse assessed as abnormalities in skin at 5 to 20 mg/kg, sc administered into middle dorsum and measured after 24 hrs; assay type: organism-based; conditions: in vivo, dose 5-20 mg/kg
Staphylococcus aureus [33] = test: Induction of ROS production in methicillin-resistant Staphylococcus aureus 3 assessed as fold increase in intracellular ROS level at 64 ug/ml incubated for 40 mins by DCFH-DA dye based fluorescence analysis relative to control; assay type: functional
Staphylococcus aureus [34] = test: Antibacterial activity against methicillin-resistant Staphylococcus aureus 3 infected in KM mouse assessed as reduction in skin lesions/abscesses in subcutaneous tissue at 10 mg/kg administered into skin infection site measured after 24 hrs; assay type: functional, organism-based
[35] = Toxicity in KM mouse infected with methicillin-resistant Staphylococcus aureus 3 assessed as histopathological abnormalities in spleen at 5 to 10 mg/kg administered into skin infection site measured after 24 hrs by H and E staining based analysis; assay type: organism-based; conditions: in vivo, topical_or_ocular, dose 5-10 mg/kg

CCCN(CCC)C(=O)C[N+](C)(C)CCCCOc1ccc(/C=C/C(=O)c2c(OC)cc3c(c2O)C=CC(C)(C)O3)cc1.[Br-]
Activity (Staphylococcus aureus [1]): Active | Activity [2]: Toxic | Activity (Cell membrane [3]): Dose-Dependent Effect | Activity [4]: Non-Toxic | Activity (Cell membrane [5]): Active | Activity (Staphylococcus aureus [6]): inactive | Activity (Cell membrane [7]): Active | MIC (Staphylococcus aureus [8]): 1 µg/mL | Activity [9]: Non-Toxic | MIC (Staphylococcus aureus [10]): 2 µg/mL | Activity [11]: Non-Toxic | Activity [12]: Non-Toxic | Activity [13]: Non-Toxic | Activity [14]: Non-Toxic | Activity (Staphylococcus aureus [15]): Tde | Activity (Staphylococcus aureus [16]): Active | Activity [17]: Non-Toxic | Activity (Cell membrane [18]): Active | Activity [19]: Non-Toxic | Activity (Staphylococcus aureus [20]): Active | HC50 at 1 h [21]: 338 µg/mL | Activity (Staphylococcus aureus [22]): 3 log10CFU/g | MIC (Staphylococcus aureus [23]): 1 µg/mL | Activity [24]: Non-Toxic | Activity (Cell membrane [25]): Dose-Dependent Effect | Activity (L02): Non-Toxic | Activity (Staphylococcus aureus [26]): 99.998% | Activity (Staphylococcus aureus [27]): Active | MIC (Staphylococcus aureus [28]): 1 µg/mL | MIC (Staphylococcus aureus [29]): 32 µg/mL | Activity (Staphylococcus aureus [30]): Tde | MIC (Staphylococcus aureus [31]): 1 µg/mL | Activity [32]: Non-Toxic | fold change (FC) (Staphylococcus aureus [33]; dose 64 µg/ml): 7 | Activity (Staphylococcus aureus [33]; dose 64.0 µg/ml): Active | Activity (Staphylococcus aureus [34]): Active | Activity [35]: Non-Toxic
